According to PubChem BioAssay AID330 (DTP/NCI, 2004):
“And” between values parts separate entries of the source, which are not always exact repeats. Identical values can stand only once. Toxic doses and inconclusive results are not listed. Rule for the calls: active = survival T/C of 150% or more; inactive = T/C below 125% in these data.

Test system: P388 leukemia ip, CD2F1 mice, survival T/C
Assay: NCI In Vivo Anticancer Drug Screen. Data for tumor model P388 Leukemia (intraperitoneal) in CD2F1 (CDF1) mice
Conditions: endpoint: median survival time, higher = longer survival
Procedure, shortened: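 Mice carrying the transplanted tumor received test compound or vehicle. Survival was recorded in each group, and the value is the treated-group measurement divided by that of the vehicle-treated control group.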

[1] = dose: 25.0 mg/kg/injection, schedule: Q01DX001 (ip), vehicle: saline
[2] = dose: 50.0 mg/kg/injection, schedule: Q01DX001 (ip), vehicle: saline
[3] = dose: 100.0 mg/kg/injection, schedule: Q01DX001 (ip), vehicle: saline
[4] = dose: 100.0 mg/kg/injection, schedule: Q04DX003 (ip), vehicle: saline
[5] = dose: 12.5 mg/kg/injection, schedule: Q01DX005 (ip), vehicle: saline with Tween-80
[6] = dose: 25.0 mg/kg/injection, schedule: Q01DX005 (ip), vehicle: saline with Tween-80
[7] = dose: 50.0 mg/kg/injection, schedule: Q01DX005 (ip), vehicle: saline with Tween-80
[8] = dose: 60.0 mg/kg/injection, schedule: Q01DX005 (ip), vehicle: Klucel (hydroxypropylcellulose) (HPC)
[9] = dose: 120.0 mg/kg/injection, schedule: Q01DX005 (ip), vehicle: Klucel (hydroxypropylcellulose) (HPC)
[10] = dose: 240.0 mg/kg/injection, schedule: Q01DX005 (ip), vehicle: Klucel (hydroxypropylcellulose) (HPC)
[11] = dose: 100.0 mg/kg/injection, schedule: Q01DX001 (ip), vehicle: saline with Tween-80
[12] = dose: 60.0 mg/kg/injection, schedule: Q01DX005 (ip), vehicle: saline with Tween-80
[13] = dose: 120.0 mg/kg/injection, schedule: Q01DX005 (ip), vehicle: saline with Tween-80

Measured: T/C

CCOC(=O)c1ccc(C(=O)OCC)nc1
inactive: [1] 100 % of control | [2] 100 % of control | [3] 100 % of control

O=C(CN1CCOCC1)c1c(-c2ccccc2)[nH]c2ccccc12
inactive: [4] 104 % of control | dose: 200.0 mg/kg/injection, schedule: Q04DX003 (ip), vehicle: saline 102 % of control | dose: 400.0 mg/kg/injection, schedule: Q04DX003 (ip), vehicle: saline 95 % of control

CC(C)CCCC(C)CCOCCN1CCCCC1 (stereo not drawn)
inactive: [5] 100 % of control | [6] 113 % of control | [7] 109 % of control and 114 % of control

C[C@H](N)C(O)/C=C/c1ccccc1 (stereo partly drawn)
inactive: dose: 10.0 mg/kg/injection, schedule: Q01DX005 (ip), vehicle: saline 103 % of control | dose: 20.0 mg/kg/injection, schedule: Q01DX005 (ip), vehicle: saline 93 % of control | dose: 40.0 mg/kg/injection, schedule: Q01DX005 (ip), vehicle: saline 97 % of control

O=[N+]([O-])O.[Al]
inactive: dose: 25.0 mg/kg/injection, schedule: Q01DX009 (ip), vehicle: saline 100 % of control | dose: 50.0 mg/kg/injection, schedule: Q01DX009 (ip), vehicle: saline 91 % of control | dose: 100.0 mg/kg/injection, schedule: Q01DX009 (ip), vehicle: saline 86 % of control | [4] 90 % of control

CN(C)c1cc(N(C)C)c(N(C)C)cc1N(C)C
inactive: [7] 109 % of control | dose: 100.0 mg/kg/injection, schedule: Q01DX005 (ip), vehicle: saline with Tween-80 102 % of control | dose: 200.0 mg/kg/injection, schedule: Q01DX005 (ip), vehicle: saline with Tween-80 100 % of control

O=C(O)c1cnc2cc3c(cc2c1Nc1cccc(C(F)(F)F)c1)OCO3
inactive: [8] 99 % of control | [9] 96 % of control | [10] 96 % of control

CC1=NCCN=C(C)C1N=Nc1ccc(S(=O)(=O)Nc2ncccn2)cc1
inactive: dose: 100.0 mg/kg/injection, schedule: Q04DX003 (ip), vehicle: saline with Tween-80 96 % of control | dose: 200.0 mg/kg/injection, schedule: Q04DX003 (ip), vehicle: saline with Tween-80 93 % of control | dose: 400.0 mg/kg/injection, schedule: Q04DX003 (ip), vehicle: saline with Tween-80 99 % of control

COc1ccc(C(=O)C(Br)C(Br)C(=O)O)cc1 (stereo not drawn)
inactive: dose: 12.5 mg/kg/injection, schedule: Q01DX009 (ip), vehicle: saline with Tween-80 114 % of control | dose: 25.0 mg/kg/injection, schedule: Q01DX009 (ip), vehicle: saline with Tween-80 114 % of control | dose: 50.0 mg/kg/injection, schedule: Q01DX009 (ip), vehicle: saline with Tween-80 107 % of control and 121 % of control

Cc1cc([O-])c([I+]c2ccccc2)c(=O)[nH]1
inactive: dose: 50.0 mg/kg/injection, schedule: Q01DX005 (ip), vehicle: Klucel (hydroxypropylcellulose) (HPC) 103 % of control | dose: 100.0 mg/kg/injection, schedule: Q01DX005 (ip), vehicle: Klucel (hydroxypropylcellulose) (HPC) 110 % of control | dose: 200.0 mg/kg/injection, schedule: Q01DX005 (ip), vehicle: Klucel (hydroxypropylcellulose) (HPC) 102 % of control

CCn1cc(C(=O)O)c(=O)c2ccc(C)[n+](C)c21
inactive: dose: 100.0 mg/kg/injection, schedule: Q04DX002 (ip), vehicle: saline 99 % of control | dose: 200.0 mg/kg/injection, schedule: Q04DX002 (ip), vehicle: saline 100 % of control | dose: 400.0 mg/kg/injection, schedule: Q04DX002 (ip), vehicle: saline 98 % of control

NC1=NS(=O)(=O)Nc2nn(-c3ccccc3)nc21
inactive: [11] 107 % of control | dose: 200.0 mg/kg/injection, schedule: Q01DX001 (ip), vehicle: saline with Tween-80 101 % of control | dose: 400.0 mg/kg/injection, schedule: Q01DX001 (ip), vehicle: saline with Tween-80 99 % of control

COc1ccccc1N/N=c1/c2n(-c3ccc(Cl)cc3)c(=S)n(-c3ccccn3)c1=NCCN=2
inactive: [5] 97 % of control | [6] 100 % of control | [7] 102 % of control and 94 % of control

CCCCCCCCCCCCCCCCC1=C(C(=O)OC)NC(N)=NC1O (stereo not drawn)
inactive: dose: 7.5 mg/kg/injection, schedule: Q01DX005 (ip), vehicle: saline with Tween-80 103 % of control | dose: 15.0 mg/kg/injection, schedule: Q01DX005 (ip), vehicle: saline with Tween-80 100 % of control | dose: 30.0 mg/kg/injection, schedule: Q01DX005 (ip), vehicle: saline with Tween-80 102 % of control | [12] 103 % of control | [13] 103 % of control | dose: 600.0 mg/kg/injection, schedule: Q01DX005 (ip), vehicle: saline with Tween-80 106 % of control

CC1(C)CC2(OC2c2ccccc2[N+](=O)[O-])C(=O)c2ccccc21 (stereo not drawn)
inactive: dose: 100.0 mg/kg/injection, schedule: Q01DX009 (ip), vehicle: saline with Tween-80 100 % of control | dose: 200.0 mg/kg/injection, schedule: Q01DX009 (ip), vehicle: saline with Tween-80 100 % of control | dose: 400.0 mg/kg/injection, schedule: Q01DX009 (ip), vehicle: saline with Tween-80 100 % of control

C[C@@H]1C(N2CCCC2)=CC(=O)OC1c1ccccc1 (stereo partly drawn)
inactive: [12] 105 % of control | [13] 109 % of control | dose: 240.0 mg/kg/injection, schedule: Q01DX005 (ip), vehicle: saline with Tween-80 111 % of control

CC(=C\c1ccc(Cl)c(Cl)c1)/C(C)=N/NC(N)=Nc1ccc(C)cc1
inactive: dose: 25.0 mg/kg/injection, schedule: Q04DX002 (ip), vehicle: saline with Tween-80 103 % of control | dose: 50.0 mg/kg/injection, schedule: Q04DX002 (ip), vehicle: saline with Tween-80 111 % of control

CC1COn2c1nc1ccccc1c2=O (stereo not drawn)
inactive: dose: 50.0 mg/kg/injection, schedule: Q01DX009 (ip), vehicle: Klucel (hydroxypropylcellulose) (HPC) 104 % of control | dose: 100.0 mg/kg/injection, schedule: Q01DX009 (ip), vehicle: Klucel (hydroxypropylcellulose) (HPC) 103 % of control | dose: 200.0 mg/kg/injection, schedule: Q01DX009 (ip), vehicle: Klucel (hydroxypropylcellulose) (HPC) 104 % of control

O=S(=O)(O)Oc1c(S(=O)(=O)O)c(S(=O)(=O)O)c(O)c(S(=O)(=O)O)c1S(=O)(=O)O
inactive: [1] 111 % of control | [2] 113 % of control | [11] 103 % of control | [3] 94 % of control

C[CH2][Sn]([O][Sn]([Cl])([CH2]C)[c]1ccccc1)[c]1ccccc1 (stereo not drawn)
inactive: dose: 3.12 mg/kg/injection, schedule: Q01DX005 (ip), vehicle: Klucel (hydroxypropylcellulose) (HPC) 118 % of control | dose: 6.25 mg/kg/injection, schedule: Q01DX005 (ip), vehicle: Klucel (hydroxypropylcellulose) (HPC) 101 % of control | dose: 12.5 mg/kg/injection, schedule: Q01DX005 (ip), vehicle: Klucel (hydroxypropylcellulose) (HPC) 101 % of control

CC(=S)N(c1ccccc1)c1ccccc1
inactive: [8] 101 % of control | [9] 96 % of control | [10] 93 % of control

C[CH2][Ge]([c]1ccccc1)[c]1ccccc1.C[CH2][Ge]([c]1ccccc1)[c]1ccccc1.c1cc[c]([Ge]([O][Ge]([c]2ccccc2)[c]2ccccc2)[c]2ccccc2)cc1
inactive: dose: 50.0 mg/kg/injection, schedule: Q01DX005 (ip), vehicle: saline 91 % of control | dose: 100.0 mg/kg/injection, schedule: Q01DX005 (ip), vehicle: saline 91 % of control | dose: 200.0 mg/kg/injection, schedule: Q01DX005 (ip), vehicle: saline 91 % of control

O=C1c2ccccc2-c2c1c1ccccc1c(=O)n2Cc1ccccc1
inactive: dose: 6.25 mg/kg/injection, schedule: Q01DX005 (ip), vehicle: saline with Tween-80 101 % of control | [5] 101 % of control | [6] 104 % of control
